Assay results as given in ChEMBL document CHEMBL1159200, “A new flavonol glycoside gallate ester from Acer okamotoanum and its inhibitory activity against human immunodeficiency virus-1 (HIV-1) integrase” (J Nat Prod, 1998).

Biological target: Human immunodeficiency virus type 1 integrase (Human immunodeficiency virus 1, UniProt Q7ZJM1)
Assay: Inhibition of HIV1 recombinant integrase expressed in Escherichia coli

Sequence of Human immunodeficiency virus type 1 integrase (Q7ZJM1 whole entry): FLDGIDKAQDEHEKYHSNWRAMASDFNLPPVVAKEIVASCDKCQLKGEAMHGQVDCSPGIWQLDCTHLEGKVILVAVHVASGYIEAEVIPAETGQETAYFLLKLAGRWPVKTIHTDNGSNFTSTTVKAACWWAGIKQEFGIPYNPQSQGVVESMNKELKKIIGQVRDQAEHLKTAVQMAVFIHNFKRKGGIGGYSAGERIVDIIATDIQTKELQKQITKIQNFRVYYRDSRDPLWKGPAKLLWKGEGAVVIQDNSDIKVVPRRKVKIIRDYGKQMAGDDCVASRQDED

SMILES	IC50 [µM]
O=C(OC[C@H]1O[C@@H](OC(=O)c2cc(O)c(O)c(O)c2)[C@H](OC(=O)c2cc(O)c(O)c(O)c2)[C@@H](O)[C@@H]1O)c1cc(O)c(O)c(O)c1	44.5
COC(=O)c1cc(O)c(O)c(O)c1 [GALLIC ACID METHYL ESTER]	155
O=C(OC[C@H]1O[C@@H](OC(=O)c2cc(O)c(O)c(O)c2)[C@H](OC(=O)c2cc(O)c(O)c(O)c2)[C@@H](OC(=O)c2cc(O)c(O)c(O)c2)[C@@H]1OC(=O)c1cc(O)c(O)c(O)c1)c1cc(O)c(O)c(O)c1 [PENTAGALLOYL GLUCOSE]	29.8
C[C@@H]1O[C@@H](Oc2c(-c3ccc(O)c(O)c3)oc3cc(O)cc(O)c3c2=O)[C@H](O)[C@H](O)[C@H]1O [QUERCITRIN]	168

More lines, now with the values ahead:

IC50 [µM]	SMILES
31.5	O=C(OC[C@H]1O[C@@H](Oc2c(-c3ccc(O)c(O)c3)oc3cc(O)cc(O)c3c2=O)[C@H](OC(=O)c2cc(O)c(O)c(O)c2)[C@@H](O)[C@H]1O)c1cc(O)c(O)c(O)c1
30.9	O=C(O[C@H]1[C@H](Oc2c(-c3ccc(O)c(O)c3)oc3cc(O)cc(O)c3c2=O)OC[C@H](O)[C@@H]1O)c1cc(O)c(O)c(O)c1
45.3	O=C(O[C@H]1[C@H](Oc2c(-c3ccc(O)c(O)c3)oc3cc(O)cc(O)c3c2=O)O[C@H](CO)[C@H](O)[C@@H]1O)c1cc(O)c(O)c(O)c1
> 239	O=c1c(O[C@@H]2OC[C@H](O)[C@H](O)[C@H]2O)c(-c2ccc(O)cc2)oc2cc(O)cc(O)c12
139	O=c1c(O[C@@H]2O[C@H](CO)[C@H](O)[C@H](O)[C@H]2O)c(-c2ccc(O)c(O)c2)oc2cc(O)cc(O)c12 [HYPEROSIDE]
